{
  "source": "patent US10577363B2",
  "about": "“Substituted piperidine compounds” (EPIZYME, INC., priority 2014, dated 2020)",
  "key": {"[1]": {"tested_on": "esophageal, liver and breast cancer cell lines", "settings": "several esophageal, dose-dependent; cited from earlier work"}, "SMYD3 [2]": {"target": "T1, SMYD3 (Homo sapiens (Human), UniProt Q9H7B4)", "T1 sequence (Q9H7B4 whole entry)": "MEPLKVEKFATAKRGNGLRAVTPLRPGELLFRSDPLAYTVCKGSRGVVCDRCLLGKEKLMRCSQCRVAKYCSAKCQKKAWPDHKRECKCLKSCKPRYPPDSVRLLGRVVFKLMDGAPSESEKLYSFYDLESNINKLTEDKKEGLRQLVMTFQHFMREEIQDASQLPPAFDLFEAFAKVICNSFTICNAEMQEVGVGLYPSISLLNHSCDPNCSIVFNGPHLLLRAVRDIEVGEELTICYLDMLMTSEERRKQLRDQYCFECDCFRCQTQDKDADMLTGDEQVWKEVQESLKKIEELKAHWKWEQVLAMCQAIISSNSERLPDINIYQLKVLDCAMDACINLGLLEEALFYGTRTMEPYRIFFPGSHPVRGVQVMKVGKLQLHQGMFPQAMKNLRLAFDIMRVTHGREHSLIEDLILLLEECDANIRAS", "test": "SMYD3 biochemical assay (SPA, 3H-SAM methylation of MEKK2 protein substrate)", "how_it_was_run": "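SPA methyltransferase format: tag-cleaved human SMYD3, insect-cell GST-MEKK2 protein substrate, 3H-SAM donor, 30 min RT enzyme–compound preincubation, 100 uM cold SAM quench.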"}, "SMYD3 [3]": {"target": "T1, SMYD3", "test": "SMYD3 cell assay (Trimethyl-MEKK2 In-Cell Western in 293T/17 cells)", "format": "cell-based", "how_it_was_run": "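In-Cell Western readout: methanol-fixed cells stained for trimethyl-MEKK2 and flag tag, ratio per well normalized to DMSO and background controls.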"}, "[4]": {"settings": "IC50 values are an average of n = 1 to n = 50, read-out: SMYD3 Biochem IC50*"}, "[5]": {"settings": "IC50 values are an average of n = 1 to n = 50, read-out: SMYD3 Cell IC50*"}},
  "note": "pIC50: −log10 of the molar value.",
  "data": [
    {"compound": "Cc1cn(CCN2CCN(c3ccccc3-c3cc(C#N)cc(C(=O)NCCCN4CCCC4)c3)CC2)c2ccccc12", "note": "[LLY-507]", "values": [
      {"measurement": "inhibition of proliferation of cancer cell lines", "setting": "[1]", "result": "inhibited the proliferation"}
    ]},
    {"compound": "O=C(N[C@H]1C[C@H]2CC[C@@H](C1)N2S(=O)(=O)[C@@H]1CCCN(CCO)C1)c1cc(C2CC2)on1", "note": "[compound 981, 5-cyclopropyl-N-((1R,3R,5S)-8-(((R)-1-(2-hydroxyethyl)piperidin-3-yl)sulfonyl)-8-azabicyclo[3.2.1]octan-3-yl)isoxazole-3-carboxamide]", "values": [
      {"measurement": "pIC50", "setting": "SMYD3 [2]; [4]", "result": 6.90},
      {"measurement": "pIC50", "setting": "SMYD3 [3]; [5]", "result": 6.33}
    ]},
    {"compound": "CN1CCCC1CS(=O)(=O)N1[C@@H]2CC[C@H]1C[C@@H](NC(=O)c1cc(C3CC3)on1)C2", "note": "(stereo partly drawn) [compound 982, 5-cyclopropyl-N-((1R,3r,5S)-8-(((1-methylpyrrolidin-2-yl)methyl)sulfonyl)-8-azabicyclo[3.2.1]octan-3-yl)isoxazole-3-carboxamide]", "values": [
      {"measurement": "pIC50", "setting": "SMYD3 [2]; [4]", "result": 6.87},
      {"measurement": "pIC50", "setting": "SMYD3 [3]; [5]", "result": 6.09}
    ]},
    {"compound": "CC[C@H]1CNCCN1S(=O)(=O)N1CC[C@H](NC(=O)c2cc(C3CC3)on2)C[C@@H]1C", "note": "[compound 983, 5-cyclopropyl-N-((2S,4S)-1-(((S)-2-ethylpiperazin-1-yl)sulfonyl)-2-methylpiperidin-4-yl)isoxazole-3-carboxamide]", "values": [
      {"measurement": "pIC50", "setting": "SMYD3 [2]; [4]", "result": 6.85},
      {"measurement": "pIC50", "setting": "SMYD3 [3]; [5]", "result": 6.03}
    ]},
    {"compound": "C[C@H]1C[C@@H](NC(=O)c2cc(C3CC3)on2)CCN1S(=O)(=O)N1CCNC[C@@H]1c1ccccc1", "note": "[compound 984, 5-cyclopropyl-N-((2S,4S)-2-methyl-1-(((S)-2-phenylpiperazin-1-yl)sulfonyl)piperidin-4-yl)isoxazole-3-carboxamide]", "values": [
      {"measurement": "pIC50", "setting": "SMYD3 [2]; [4]", "result": 6.85},
      {"measurement": "pIC50", "setting": "SMYD3 [3]; [5]", "result": 5.73}
    ]},
    {"compound": "O=C(N[C@H]1C[C@H]2CC[C@@H](C1)N2S(=O)(=O)[C@H]1CCCN(CCO)C1)c1cc(C2CC2)on1", "note": "[compound 985, 5-cyclopropyl-N-((1R,3S,5S)-8-(((S)-1-(2-hydroxyethyl)piperidin-3-yl)sulfonyl)-8-azabicyclo[3.2.1]octan-3-yl)isoxazole-3-carboxamide]", "values": [
      {"measurement": "pIC50", "setting": "SMYD3 [2]; [4]", "result": 6.81},
      {"measurement": "pIC50", "setting": "SMYD3 [3]; [5]", "result": 6.15}
    ]},
    {"compound": "COCCNCc1ccc(S(=O)(=O)N2[C@@H]3CC[C@H]2C[C@@H](NC(=O)c2cc(C4CC4)on2)C3)cc1", "note": "[compound 986, 5-cyclopropyl-N-((1R,3r,5S)-8-((4-(((2-methoxyethyl)amino)methyl)phenyl)sulfonyl)-8-azabicyclo[3.2.1]octan-3-yl)isoxazole-3-carboxamide]", "values": [
      {"measurement": "pIC50", "setting": "SMYD3 [2]; [4]", "result": 6.81},
      {"measurement": "pIC50", "setting": "SMYD3 [3]; [5]", "result": 6.09}
    ]},
    {"compound": "CCc1cc(C(=O)N[C@@H]2CCN(S(=O)(=O)c3ccc(C(C)(C)N)cc3)[C@@H](C)C2)no1", "note": "[compound 987, N-((2S,4R)-1-((4-(2-aminopropan-2-yl)phenyl)sulfonyl)-2-methylpiperidin-4-yl)-5-ethylisoxazole-3-carboxamide]", "values": [
      {"measurement": "pIC50", "setting": "SMYD3 [2]; [4]", "result": 6.80},
      {"measurement": "pIC50", "setting": "SMYD3 [3]; [5]", "result": 6.11}
    ]},
    {"compound": "CN(C)C(C)(C)c1ccc(S(=O)(=O)N2[C@@H]3CC[C@H]2C[C@@H](NC(=O)c2cc(C4CC4)on2)C3)cc1", "note": "[compound 988, 5-cyclopropyl-N-((1R,3r,5S)-8-((4-(2-(dimethylamino)propan-2-yl)phenyl)sulfonyl)-8-azabicyclo[3.2.1]octan-3-yl)isoxazole-3-carboxamide]", "values": [
      {"measurement": "pIC50", "setting": "SMYD3 [2]; [4]", "result": 6.80},
      {"measurement": "pIC50", "setting": "SMYD3 [3]; [5]", "result": 5.78}
    ]},
    {"compound": "C[C@H]1C[C@@H](NC(=O)c2cc(C3CC3)on2)CCN1S(=O)(=O)CC1CCCCN1", "note": "(stereo partly drawn) [compound 989, 5-cyclopropyl-N-((2S,4S)-2-methyl-1-((piperidin-2-ylmethyl)sulfonyl)piperidin-4-yl)isoxazole-3-carboxamide]", "values": [
      {"measurement": "pIC50", "setting": "SMYD3 [2]; [4]", "result": 6.76},
      {"measurement": "pIC50", "setting": "SMYD3 [3]; [5]", "result": 5.94}
    ]},
    {"compound": "O=C(N[C@H]1C[C@H]2CC[C@@H](C1)N2S(=O)(=O)N1CC2CCC(C1)N2CCC(F)(F)F)c1cc(C2CC2)on1", "note": "[compound 990, 5-cyclopropyl-N-((1R,3r,5S)-8-((8-(3,3,3-trifluoropropyl)-3,8-diazabicyclo[3.2.1]octan-3-yl)sulfonyl)-8-azabicyclo[3.2.1]octan-3-yl)isoxazole-3-carboxamide]", "values": [
      {"measurement": "pIC50", "setting": "SMYD3 [2]; [4]", "result": 6.74},
      {"measurement": "pIC50", "setting": "SMYD3 [3]; [5]", "result": 6.03}
    ]},
    {"compound": "CCC[C@H]1C[C@@H](NC(=O)c2cc(C3CC3)on2)CCN1S(=O)(=O)CC1CCN(C)CC1", "note": "[compound 991, 5-cyclopropyl-N-((2S,4S)-1-(((1-methylpiperidin-4-yl)methyl)sulfonyl)-2-propylpiperidin-4-yl)isoxazole-3-carboxamide]", "values": [
      {"measurement": "pIC50", "setting": "SMYD3 [2]; [4]", "result": 6.73},
      {"measurement": "pIC50", "setting": "SMYD3 [3]; [5]", "result": 5.66}
    ]},
    {"compound": "C[C@H]1CN(S(=O)(=O)N2CC[C@H](NC(=O)c3cc(C4CC4)on3)C[C@@H]2C)[C@@H](C)CN1", "note": "[compound 992, 5-cyclopropyl-N-((2S,4S)-1-(((2S,5S)-2,5-dimethylpiperazin-1-yl)sulfonyl)-2-methylpiperidin-4-yl)isoxazole-3-carboxamide]", "values": [
      {"measurement": "pIC50", "setting": "SMYD3 [2]; [4]", "result": 6.72},
      {"measurement": "pIC50", "setting": "SMYD3 [3]; [5]", "result": 5.95}
    ]},
    {"compound": "CC(C)Cc1cc(C(=O)N[C@H]2C[C@H]3CC[C@@H](C2)N3S(=O)(=O)CC2CCN(C)CC2)no1", "note": "[compound 993, 5-isobutyl-N-((1R,3r,5S)-8-(((1-methylpiperidin-4-yl)methyl)sulfonyl)-8-azabicyclo[3.2.1]octan-3-yl)isoxazole-3-carboxamide]", "values": [
      {"measurement": "pIC50", "setting": "SMYD3 [2]; [4]", "result": 6.69},
      {"measurement": "pIC50", "setting": "SMYD3 [3]; [5]", "result": 5.56}
    ]},
    {"compound": "N-((2S,4S)-1-(3,8-diaza-bicyclo[3.2.1]octan-8-ylsulfonyl)-2-methylpiperidin-4-yl)-5-cyclopropylisoxazole-3-carboxamide [Cpd. No. 555]", "values": [
      {"measurement": "pIC50", "setting": "SMYD3 [2]; Table 2A, read-out: SMYD3 Biochem IC50", "result": 8.43},
      {"measurement": "pIC50", "setting": "SMYD3 [3]; Table 2A, read-out: SMYD3 Cell IC50", "result": 7.62}
    ]}
  ]
}
